# Laboratory results as given in patent publication US20100203044A1, “DR6 ANTAGONISTS AND USES THEREOF IN TREATING NEUROLOGICAL DISORDERS” (priority 2006, published 2010).
# “Also recorded” adds a separate entry of the source. Residues, ends and D or L forms follow the SMILES beside them. *: point of attachment. Cbz = O=C(OCc1ccccc1)*; CH2F = FC*
# Tests used:
# [1] = system: sensory neurons; assay: NGF deprivation assay in Campenot Chambers, local sensory axonal degeneration; assay type: cell-based, mouse; settings: for sensory axonal degeneration induced by NGF withdrawal: 30 μg/ml in axonal compartments with anti-NGF, 0, 6 and 24 hours
# Description: Materials and methods used to generate the data shown in this figure are as follows. To examine whether ligand is required for DR6 function in sensory axonal degeneration, a compartmented culture analysis of sensory axon growth and degeneration was carried out as follows. A Campenot nerve cell chamber system was used to isolate neuronal processes (axons) from the cell bodies in different compartments (separate fluid environments), analogous to neuronal cell bodies in one location of the nervous system projecting their axons to a distal target in another location. The assay was carried out as originally described by Campenot (Campenot et al., J. Neurosci. 11(4): 1126-39 (1991)) with the following modifications. Briefly, 35-mm tissue culture dishes were coated with PDL/Laminin and scratched with a pin rake (Tyler Research) to generate tracks, as illustrated for example in FIGS. 1 and 4 of Campenot et al., supra.
# A drop of culture medium (Neurobasal medium with B27 supplement, 25 ng/ml of NGF, and 4 g/L of methylcellulose) was placed on the scratched substratum. A Teflon divider (Tyler Research) was seated on silicone grease and a dab of silicone grease was placed at the mouth of the center slot. Dissociated sensory neurons derived from E12.5 mouse DRGs were suspended in methylcellulose-thickened medium and loaded into a disposable sterile syringe fitted with a 22-gauge needle. This cell suspension was injected into the center slots of each compartmented dish under the dissecting microscope. The neurons were allowed to settle overnight. […]
# To trigger local axonal degeneration, NGF-containing medium from axonal compartments was substituted with neurobasal medium with an NGF blocking antibody (anti-NGF, Genentech, Inc., 20 ug/ml). Zero hours, 6 hours, or 24 to 48 hours following NGF deprivation, sensory neurons were fixed in 4% PFA for 30 minutes at room temperature and processed for immunofluorescence staining with axonal marker TUJ-1 (Covance, 1:500 dilution) to visualize degenerating axons by fluorescence microscopy (FIG. 11B) (as above described in Example 7). […]
# To examine whether ligand is required for DR6 function in axonal degeneration program triggered by NGF withdrawal, 30 μg/ml of hDR6-ECD-Fc immunoadhesin protein (described in EXAMPLE 3 above) or 30 μg/ml of a control Fc (Genentech, Inc.) was included together with anti-NGF treatment in axonal compartments of Campenot Chambers. Zero to 24 hours after NGF deprivation, axons in Campenot Chambers were fixed with 4% PFA/PBS and visualized by immuno-fluorescence staining with TUJ-1 (1:500, Covance)/secondary antibody conjugated to a fluorescence group Alexa 488 (Molecular Probes, BD) (FIG. 11B). […]
# [2] = system: DR6-AP binding sites on BAX null sensory axons; assay: in situ DR6-AP sensory axon binding assay after NGF deprivation; assay type: cell-based, mouse; settings: BAX null sensory axons E12.5; BACE inhibitor at 1 uM
# Description: For the in situ DR6-AP sensory axon binding assay, either wild-type or Bax null sensory explants were cultured in Neurobasal medium/B27 (Invitrogen) as outlined in the Examples 7-8 above, with 50 ng/ml NGF (Roche). Two days post-plating, DRG explants were either left untreated or deprived from NGF as described above in Examples 7-8. Bax inhibitory peptide was added where indicated on FIG. 12B (10 uM, Bax-V5, Tocris). Twelve hours post-NGF deprivation, DRG explants were washed twice with the binding buffer (HBSS, Gibco Cat. No. 14175-095, with 0.2% BSA, 0.1% NaN3, 5 mM CaCl2, 1 mM MgCl2, 20 mM HEPES, pH=7.0). AP binding assay was then carried out by making a 1:1 mixture of DR6-AP conditioned medium and the binding buffer (or control AP conditioned medium and the binding buffer), which was applied directly to DRG explants in 8-well culture slides (Becton, Dickinson and Company) and incubated for 90 minutes at room temperature.
# Following the incubation, unbound DR6-AP proteins were washed away by rinsing DRG explants five times with the binding buffer. DRG explants were then fixed with 3.7% formaldehyde diluted in PBS, for 12 minutes at room temperature. The remaining formaldehyde was removed by rinsing DRG explants 3 times with HBS buffer (20 mM HEPES pH=7.0, 150 mM NaCl). Endogenous AP activity was blocked by heat inactivation at 65° C. in HBS buffer for 30 minutes. […]
# [3] = cited from earlier work
# [4] = system: commissural neurons; assay: dorsal spinal cord (commissural explant) survival assay; assay type: cell-based, rat; settings: for commissural axon degeneration: 48 hours, hDR6-ECD-Fc at 30 μg/ml and 10 μg/ml
# Description: To examine functional roles of DR6 in axonal degeneration and programmed cell death of commissural neurons, an RNAi-based dorsal spinal cord survival assay (Kennedy et al., Cell, 78:425-435 (1994); Wang et al., supra, 1999) was conducted (see FIG. 3). E13 rat or E11.5 mouse embryos were placed in L15 medium (Gibco) and siRNAs (IDT) together with green fluorescent protein (“GFP”)-encoding plasmids were injected into the neural tubes. The siRNAs and plasmids were then delivered to dorsal progenitor cells by electroporation. Dorsal spinal cord explants were dissected out, embedded into a 3D-collagen gel matrix, and cultured in Opti-MEM/F12 medium (Invitrogen) with recombinant netrin-1 ([…]) and 5% horse serum (Sigma) at 37° C. in a 5% CO2 environment. Within 16 hours in response to chemo-attractant netrin-1, commissural axons grow out of the explant into the collagen matrix gel (Kennedy et al., supra, 1994). Commissural axons are visualized by GFP fluorescence by observation using an inverted microscope.
# Materials and methods used to generate the data shown in this figure are as follows. To investigate physiological roles of DR6 receptor in axonal degeneration and programmed cell death of commissural neurons, a dorsal spinal cord survival assay according to protocols known in the art (Kennedy et al., Cell, 78:425-435 (1994); Wang et al., Nature, 401:765-769 (1999)) was performed (with data shown in FIG. 4B). E13 rat embryos were placed in L15 medium (Gibco) and injected into their neural tubes with the following siRNA constructs (FIG. 4B): […]
# A dorsal spinal cord survival assay (as described in Example 2 above) was conducted using anti-DR6 antibodies. Microscopic observation (using green fluorescence channel for GFP) was employed to visualize commissural axons. […] To visualize GFP-expressing commissural axons, pictures were taken on the Axiovert 200 Zeiss inverted microscope (in green fluorescence channel for GFP) using AxioVision40 Release 4.5.0.0 SP1 (March 2006) computer software from Carl Zeiss Imaging Solutions. […]
compound,measurement,setting,value
OM99-2 [reference compound],sensory axonal degeneration in the absence of NGF,[1]; BACE inhibitor at 1 uM,blocked
same,disappearance of DR6-AP binding sites from sensory axons following NGF withdrawal,[2],can block the disappearance of DR6-AP binding sites
"CC[C@H](C)[C@H](NC(=O)OCc1ccccc1)C(=O)N[C@@H](CCC(=O)OC)C(=O)N[C@H](C(=O)N[C@@H](CC(=O)OC)C(=O)CF)[C@@H](C)O [caspase-8 inhibitor, Z-IETD-FMK, reference compound] (Cbz-IE(OMe)TD(OMe)-CH2F)",sensory axonal degeneration after NGF deprivation,"[1]; neurons cultured 5 days, then 24 hours, SP 600125 1 uM, Z-IETD-FMK 10 uM, Z-DEVD-FMK 10 uM",delayed
CC12CC3CC(C)(C1)CC(N)(C3)C2 [Memantine],"symptoms across SIB, ADCS-ADL19, CIBIC-Plus and NPI outcome measures","[3]; human, in vivo",improvement and stabilization of symptoms
same,"outcome measures SIB, ADCS-ADL19, CIBIC-Plus, NPI, BGP versus placebo",[3]; patients taking stable doses of Donepezil,benefit over placebo
"(L)-HIV-TAT48-57-PP-JBD20 [L-JNK-I, reference compound]",axonal degeneration of commissural neurons,[4]; JNK signaling blocked by peptide inhibitor at 1 μM,partially blocked axonal degeneration
"hDR6-ECD-Fc: human DR6 extracellular domain sequence fused with Fc, SEQ ID NO: 4",sensory axonal degeneration induced by NGF withdrawal,[1],delayed sensory axonal degeneration; also recorded: delayed the onset of axonal degeneration
same,sensory axonal degeneration induced by NGF withdrawal,[1]; listed as DR6-Fc,can be delayed
same,commissural axon degeneration,[4],delayed
same,commissural axon degeneration,[4]; listed as DR6-Fc,can be delayed
